# Experimental data as given in publication PMC10160475, “Biological evaluation and in silico studies of novel compounds as potent TAAR1 agonists that could be used in schizophrenia treatment” (Frontiers in Pharmacology, 2023).
# Like-named read-outs stand apart in the source and are kept apart here.
# Experiments:
# human 5-HT2A [1] = target: T1, human 5-HT2A (Homo sapiens, UniProt P28223); experiment: Calcium (FLIPR) assay, agonist activity at human 5-HT2A; type: cell-based
# T1 construct: expressed in transfected cells; host or cells: Flp-In-CHO cell line
# Experimental: (§1) With regard to 5-HT2A, the agonistic or inhibitory activity of 5-HT2A of compounds was determined using the Flp-In™-CHO cell line expressing human 5-HT2A. Cells were cultured with Ham’s F-12K (Kaighn’s) medium supplemented with 10% FBS, penicillin (100 U/ml), streptomycin (100 μg/ml), and hygromycin B (600 μg/ml) at 37°C in an atmosphere of 95% air and 5% CO2. Cells were stimulated with different concentrations of compounds for 2 h at 37°C after seeding in 384-well microplates. For the determination of agonistic activity, serotonin was used as the MAX control. In the determination of inhibitory activity, ketanserin was used as the MAX control.
# [2] = Liver microsomal stability, mouse
# Experimental: Compounds were incubated with samples of liver microsomes from mice, rats, and humans and NADPH for 5, 10, 20, 30, or 60 min at 37°C. A cold acetonitrile solution containing tolbutamide was used to terminate the reaction. Testosterone and dextromethorphan were used as positive controls. LC-MS/MS was employed to determine the retention of compounds. The retention time, chromatogram acquisition, and chromatogram integration of compounds and positive control substances were analyzed using Analyst (AB Sciex, Framingham, MA, United States).
# hERG = target: T2, hERG (Homo sapiens, UniProt Q12809); experiment: hERG assay (electrophysiological recording, CHO cells stably expressing hERG); type: cell-based; details: up to a maximum concentration of 30 μM
# T2 construct: expressed in transfected cells; host or cells: CHO cells stably expressing hERG
# Experimental: CHO cells stably expressing hERG cultured with DMEM/F12 supplemented with 10% FBS, penicillin (100 U/ml), and streptomycin (100 μg/ml) were cultured in cell culture dishes (diameter = 35 mm) in an incubator at 37°C in an atmosphere of 5% CO2. They were passaged at a ratio of 1:5 every 48 h. The medium comprised 90% F12, 10% FBS, G418 (100 μg/ml), and hygromycin B (100 μg/ml). On the day of the assay, the cell culture medium was aspirated and washed with an extracellular solution. Then, 0.25% Trypsin–EDTA solution was added, and digestion was allowed for 3–5 min at room temperature. Digestive juice was aspirated, and cells were transferred to the experimental dish for electrophysiological recording after resuspension with the extracellular solution for future use.
# [3] = target: T3, human dopamine D2L receptors (Homo sapiens, UniProt P14416); experiment: cAMP assay, inhibition at human dopamine D2L receptors; type: cell-based
# T3 construct: expressed in transfected cells; host or cells: Flp-In-CHO cells
# Experimental: (§2) With regard to D2L and D2S, recombinant Flp-In™-CHO cells expressing human dopamine D2L receptors or D2S receptors were cultured with Ham’s F-12K (Kaighn’s) medium supplemented with 10% FBS, penicillin (100 U/ml), streptomycin (100 μg/ml), and hygromycin B (600 μg/ml) at 37°C in an atmosphere of 5% CO2. The methods of cell inoculation and compound treatment were the same as those for TAAR1, and haloperidol was used as the MAX control. Percentage inhibition was calculated using the following equation: Inhibition %=mean RLUtest sample−mean RLUvehicle control/mean RLUMAX control−mean RLUvehicle control×100%.
# D2S receptors = target: T4, D2S receptors (Homo sapiens, UniProt P14416); experiment: cAMP assay, inhibition at human dopamine D2S receptors; type: cell-based
# T4 construct: expressed in transfected cells; host or cells: Flp-In-CHO cells
# Experimental: as §2
# [4] = Pharmacokinetics study in rats; type: in vivo, Sprague–Dawley rats
# Experimental: Compound 50B was dissolved in physiologic (0.9%) saline. Male and female rats were fasted overnight before dosing to avoid the possible effects of food. Compound 50B was administered via intragastric (5 mg/kg) and intravenous (2 mg/kg) routes to female and male rats. Approximately 200 μL of whole blood was collected into heparin-coated tubes at 0.083, 0.25, 0.5, 1, 2, 3, 4, 6, 8, 12, and 24 h after dosing. Plasma was collected immediately by centrifugation (8,000 g, 5 min, room temperature). Blood was placed in a heparinized Eppendorf™ tube. Plasma was centrifuged, and the concentration of compounds in the sample was determined by LC-MS/MS after pre-treatment. Drug-concentration data were processed in a […] using WinNonlin™ 6.3 (Pharsight, Mountain View, CA, United States).
# [5] = Permeability and transporter substrate evaluation in Caco-2 cells; type: in vitro ADME; details: human
# Experimental: Cells were seeded into 96-well cell plates and cultured continuously for 24 days for subsequent experiments. Compounds were administered with or without verapamil (2 µM). […] The […] content in each sample was measured by liquid chromatography–tandem mass spectrometry (LC-MS/MS). The apparent permeability coefficient and the efflux ratio were calculated.
# human 5-HT2A [6] = target: T1, human 5-HT2A; experiment: Calcium (FLIPR) assay, antagonist activity at human 5-HT2A; type: cell-based
# Experimental: as §1
# [7] = Sprague-Dawley, rat, plasma, iv, male rats, 2 mg/kg
# [8] = Sprague-Dawley, rat, plasma, po, male rats, 5 mg/kg, i.g.
# [9] = male, Sprague-Dawley, rat, plasma, po, 5 mg/kg, i.g.
# T1 sequence (P28223 whole entry): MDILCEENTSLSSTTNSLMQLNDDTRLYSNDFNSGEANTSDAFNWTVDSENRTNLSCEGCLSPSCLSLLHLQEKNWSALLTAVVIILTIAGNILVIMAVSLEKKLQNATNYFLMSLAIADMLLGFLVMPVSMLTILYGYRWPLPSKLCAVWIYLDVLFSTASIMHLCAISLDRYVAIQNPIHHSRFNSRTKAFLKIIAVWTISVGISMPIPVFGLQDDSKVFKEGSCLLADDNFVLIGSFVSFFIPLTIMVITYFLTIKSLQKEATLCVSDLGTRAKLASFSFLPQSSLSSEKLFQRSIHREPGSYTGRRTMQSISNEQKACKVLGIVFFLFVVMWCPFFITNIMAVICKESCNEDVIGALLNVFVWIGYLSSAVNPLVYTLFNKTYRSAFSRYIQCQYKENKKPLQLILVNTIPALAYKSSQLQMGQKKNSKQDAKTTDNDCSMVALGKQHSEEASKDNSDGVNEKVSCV
# T3 sequence (P14416 whole entry): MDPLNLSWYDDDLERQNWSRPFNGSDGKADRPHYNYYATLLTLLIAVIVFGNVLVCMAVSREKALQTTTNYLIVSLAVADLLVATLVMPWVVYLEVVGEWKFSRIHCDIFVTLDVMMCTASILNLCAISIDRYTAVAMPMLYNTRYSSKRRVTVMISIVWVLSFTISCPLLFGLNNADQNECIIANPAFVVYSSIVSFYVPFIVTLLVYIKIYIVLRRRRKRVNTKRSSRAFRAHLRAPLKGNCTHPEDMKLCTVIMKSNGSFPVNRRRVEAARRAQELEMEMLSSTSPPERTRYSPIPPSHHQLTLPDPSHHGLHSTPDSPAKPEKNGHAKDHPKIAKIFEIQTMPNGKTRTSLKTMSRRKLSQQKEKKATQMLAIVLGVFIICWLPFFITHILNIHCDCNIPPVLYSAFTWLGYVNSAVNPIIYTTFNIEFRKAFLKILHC
# T4 sequence (P14416 1-414 isoform P14416-2): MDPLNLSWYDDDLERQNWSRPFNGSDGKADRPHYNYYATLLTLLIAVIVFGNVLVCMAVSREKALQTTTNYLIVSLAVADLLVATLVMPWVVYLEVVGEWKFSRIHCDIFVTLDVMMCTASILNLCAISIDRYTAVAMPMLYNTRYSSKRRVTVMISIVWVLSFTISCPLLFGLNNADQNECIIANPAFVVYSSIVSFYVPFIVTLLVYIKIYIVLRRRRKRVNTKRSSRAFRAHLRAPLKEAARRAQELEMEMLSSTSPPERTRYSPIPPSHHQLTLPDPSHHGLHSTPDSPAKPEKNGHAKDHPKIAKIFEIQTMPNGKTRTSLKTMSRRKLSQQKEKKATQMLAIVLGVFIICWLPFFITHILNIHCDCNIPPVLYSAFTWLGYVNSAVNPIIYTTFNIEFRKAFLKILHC
# T2 sequence (Q12809 whole entry): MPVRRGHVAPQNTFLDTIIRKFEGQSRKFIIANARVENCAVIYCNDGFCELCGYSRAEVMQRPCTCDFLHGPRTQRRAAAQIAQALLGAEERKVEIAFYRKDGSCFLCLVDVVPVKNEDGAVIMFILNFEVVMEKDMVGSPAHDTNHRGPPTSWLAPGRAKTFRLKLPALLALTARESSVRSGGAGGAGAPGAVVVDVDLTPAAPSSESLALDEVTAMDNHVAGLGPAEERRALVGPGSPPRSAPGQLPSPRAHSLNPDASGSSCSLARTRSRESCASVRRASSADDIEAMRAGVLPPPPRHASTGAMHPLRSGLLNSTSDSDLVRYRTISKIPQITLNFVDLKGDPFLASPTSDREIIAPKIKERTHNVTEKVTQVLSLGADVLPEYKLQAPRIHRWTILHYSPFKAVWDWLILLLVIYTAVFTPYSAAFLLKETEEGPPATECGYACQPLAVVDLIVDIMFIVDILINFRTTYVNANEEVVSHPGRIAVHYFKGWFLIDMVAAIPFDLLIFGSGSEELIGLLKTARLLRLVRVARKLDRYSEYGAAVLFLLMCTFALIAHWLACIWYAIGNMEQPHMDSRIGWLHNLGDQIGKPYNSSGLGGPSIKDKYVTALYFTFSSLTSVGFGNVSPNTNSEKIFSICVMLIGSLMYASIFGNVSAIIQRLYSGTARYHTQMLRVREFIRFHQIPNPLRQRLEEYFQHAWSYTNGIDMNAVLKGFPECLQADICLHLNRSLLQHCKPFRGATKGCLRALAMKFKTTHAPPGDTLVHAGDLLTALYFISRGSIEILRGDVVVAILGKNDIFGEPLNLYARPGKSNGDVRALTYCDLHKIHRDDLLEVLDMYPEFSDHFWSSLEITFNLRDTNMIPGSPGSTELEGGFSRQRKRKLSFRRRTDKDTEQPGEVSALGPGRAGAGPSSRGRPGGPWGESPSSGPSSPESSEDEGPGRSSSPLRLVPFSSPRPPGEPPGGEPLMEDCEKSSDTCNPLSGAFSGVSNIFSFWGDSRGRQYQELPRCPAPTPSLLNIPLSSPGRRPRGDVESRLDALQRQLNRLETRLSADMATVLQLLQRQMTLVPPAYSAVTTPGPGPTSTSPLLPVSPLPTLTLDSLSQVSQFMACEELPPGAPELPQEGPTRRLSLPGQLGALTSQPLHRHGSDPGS
compound,measurement,setting,value
c1csc([C@@H]2CNCCO2)c1 [Compound 50B],EC50,human 5-HT2A [1],61.2 µM
same,Emax,"human 5-HT2A [1]; serotonin as MAX control, up to 100 μM, read-out: 5-HT2A agonism Emax",54.9%
same,Remaining (T = 60 min),"[2]; Mouse liver microsomes, 60 min",53.5%
same,CLint scaled,"[2]; mouse, liver microsomes",80.8 mL/min/kg
same,half-life,"[2]; mouse, liver microsomes",1.13 h
same,hERG cardiotoxicity,hERG,not cardiotoxic
same,IC50,[3],> 100 µM
same,Emax,"[3]; haloperidol as MAX control, up to 100 μM, read-out: dopamine D2L antagonist Emax",5.49%
same,IC50,D2S receptors,> 100 µM
same,Emax,"D2S receptors; haloperidol as MAX control, up to 100 μM, read-out: dopamine D2S antagonist Emax",24.9%
same,Cmax,[4]; [7],6.8 µM
same,MRT last,[4]; [7],1.46 ± 0.231 h
same,Cmax,[4]; [8],4.38 µM
same,MRT last,[4]; [8],3.03 ± 0.625 h
same,CL/F,"[4]; Sprague-Dawley, rat, plasma, po, male rats, 5 mg/kg, i.g., read-out: CL/F (converted)",26 mL/min/kg
same,Vd/F,"[4]; Sprague-Dawley, rat, plasma, po, male rats, 5 mg/kg, i.g., read-out: Vz/F",2.86 ± 0.104 L/kg
same,CL/F,"[4]; male rats, 2 mg/kg, i.v.",22.2 ± 3.52 mL/min/kg
same,Vz/F,"[4]; male rats, 2 mg/kg, i.v.",2.48 ± 0.485 L/kg
same,AUC(0-t),"[4]; male rats, 5 mg/kg, i.g.","18,929 ± 1774 h* nM"
same,T1/2,"[4]; male rats, 5 mg/kg, i.g.",1.28 ± 0.140 h
same,half-life,"[4]; male, Sprague-Dawley, rat, plasma, iv, 2 mg/kg",1.31 ± 0.313 h
same,AUC(0-t),"[4]; male, Sprague-Dawley, rat, plasma, iv, 2 mg/kg, i.v., read-out: AUC0-t",8.98 µM·h
same,bioavailability,"[4]; male, Sprague-Dawley, rat, plasma, oral, 5 mg/kg, i.g. vs 2 mg/kg i.v., read-out: F (oral bioavailability)",~84.3%
same,Tmax,[4]; [9],~0.833 h
same,half-life,[4]; [9],~1.28 h
same,AUC(0-t),"[4]; male, Sprague-Dawley, rat, plasma, po, 5 mg/kg, i.g., read-out: AUC0-t",~18.9 µM·h
same,efflux ratio at 120 min,[5]; Caco-2,0.781
same,Papp A→B at 120 min,"[5]; Caco-2, 120 min incubation",35.2 ×10⁻⁶ cm/s
same,Papp B→A at 120 min,"[5]; Caco-2, 120 min incubation",27.5 ×10⁻⁶ cm/s
same,IC50,human 5-HT2A [6],> 100 µM
same,Emax,"human 5-HT2A [6]; ketanserin as MAX control, up to 100 μM",31.5%
